Assay results taken from US11274090B2, “P300/CBP HAT inhibitors” (Constellation Pharmaceuticals, Inc., priority 2018, dated 2022).
pIC50: −log10 of the molar value.

What follows are compounds tested against full length p300 (Homo sapiens (Human), UniProt Q09472) (assay: full length p300 SPA assay). Conditions: average of at least 2 replicate titrations, read-out: FL P300 IC50.
Format: biochemical
Experimental: Reactions were initiated with 12.5 μL 2 μM biotinylated H3(1-21) peptide (New England Peptide) and run for 1 hr at RT, then quenched with 20 μL stop solution (200 mM Tris pH 8.0, 200 mM EDTA, 2M NaCl, 160 μM anacardic acid). 35 μL of the reaction volume was transferred to a 384-well streptavidin FlashPlate (PerkinElmer) using a Bravo liquid handler (Velocity 11) and incubated for 1.5 hr at RT. Plates were aspirated, washed with 95 μL wash buffer (15 mM Tris pH 8.5, 0.069 μM Brij-35), aspirated, sealed, and scintillation counts read on a Topcount (PerkinElmer). Data were analyzed in Genedata to determine inhibitor IC50 values.
The full length p300 SPA assay was run following the same protocol as p300 HAT SPA assay, but used 6 nM purified full length p300 (purchased from Active Motif) in place of the purified p300-HAT domain.

full length p300, sequence (Q09472 whole entry): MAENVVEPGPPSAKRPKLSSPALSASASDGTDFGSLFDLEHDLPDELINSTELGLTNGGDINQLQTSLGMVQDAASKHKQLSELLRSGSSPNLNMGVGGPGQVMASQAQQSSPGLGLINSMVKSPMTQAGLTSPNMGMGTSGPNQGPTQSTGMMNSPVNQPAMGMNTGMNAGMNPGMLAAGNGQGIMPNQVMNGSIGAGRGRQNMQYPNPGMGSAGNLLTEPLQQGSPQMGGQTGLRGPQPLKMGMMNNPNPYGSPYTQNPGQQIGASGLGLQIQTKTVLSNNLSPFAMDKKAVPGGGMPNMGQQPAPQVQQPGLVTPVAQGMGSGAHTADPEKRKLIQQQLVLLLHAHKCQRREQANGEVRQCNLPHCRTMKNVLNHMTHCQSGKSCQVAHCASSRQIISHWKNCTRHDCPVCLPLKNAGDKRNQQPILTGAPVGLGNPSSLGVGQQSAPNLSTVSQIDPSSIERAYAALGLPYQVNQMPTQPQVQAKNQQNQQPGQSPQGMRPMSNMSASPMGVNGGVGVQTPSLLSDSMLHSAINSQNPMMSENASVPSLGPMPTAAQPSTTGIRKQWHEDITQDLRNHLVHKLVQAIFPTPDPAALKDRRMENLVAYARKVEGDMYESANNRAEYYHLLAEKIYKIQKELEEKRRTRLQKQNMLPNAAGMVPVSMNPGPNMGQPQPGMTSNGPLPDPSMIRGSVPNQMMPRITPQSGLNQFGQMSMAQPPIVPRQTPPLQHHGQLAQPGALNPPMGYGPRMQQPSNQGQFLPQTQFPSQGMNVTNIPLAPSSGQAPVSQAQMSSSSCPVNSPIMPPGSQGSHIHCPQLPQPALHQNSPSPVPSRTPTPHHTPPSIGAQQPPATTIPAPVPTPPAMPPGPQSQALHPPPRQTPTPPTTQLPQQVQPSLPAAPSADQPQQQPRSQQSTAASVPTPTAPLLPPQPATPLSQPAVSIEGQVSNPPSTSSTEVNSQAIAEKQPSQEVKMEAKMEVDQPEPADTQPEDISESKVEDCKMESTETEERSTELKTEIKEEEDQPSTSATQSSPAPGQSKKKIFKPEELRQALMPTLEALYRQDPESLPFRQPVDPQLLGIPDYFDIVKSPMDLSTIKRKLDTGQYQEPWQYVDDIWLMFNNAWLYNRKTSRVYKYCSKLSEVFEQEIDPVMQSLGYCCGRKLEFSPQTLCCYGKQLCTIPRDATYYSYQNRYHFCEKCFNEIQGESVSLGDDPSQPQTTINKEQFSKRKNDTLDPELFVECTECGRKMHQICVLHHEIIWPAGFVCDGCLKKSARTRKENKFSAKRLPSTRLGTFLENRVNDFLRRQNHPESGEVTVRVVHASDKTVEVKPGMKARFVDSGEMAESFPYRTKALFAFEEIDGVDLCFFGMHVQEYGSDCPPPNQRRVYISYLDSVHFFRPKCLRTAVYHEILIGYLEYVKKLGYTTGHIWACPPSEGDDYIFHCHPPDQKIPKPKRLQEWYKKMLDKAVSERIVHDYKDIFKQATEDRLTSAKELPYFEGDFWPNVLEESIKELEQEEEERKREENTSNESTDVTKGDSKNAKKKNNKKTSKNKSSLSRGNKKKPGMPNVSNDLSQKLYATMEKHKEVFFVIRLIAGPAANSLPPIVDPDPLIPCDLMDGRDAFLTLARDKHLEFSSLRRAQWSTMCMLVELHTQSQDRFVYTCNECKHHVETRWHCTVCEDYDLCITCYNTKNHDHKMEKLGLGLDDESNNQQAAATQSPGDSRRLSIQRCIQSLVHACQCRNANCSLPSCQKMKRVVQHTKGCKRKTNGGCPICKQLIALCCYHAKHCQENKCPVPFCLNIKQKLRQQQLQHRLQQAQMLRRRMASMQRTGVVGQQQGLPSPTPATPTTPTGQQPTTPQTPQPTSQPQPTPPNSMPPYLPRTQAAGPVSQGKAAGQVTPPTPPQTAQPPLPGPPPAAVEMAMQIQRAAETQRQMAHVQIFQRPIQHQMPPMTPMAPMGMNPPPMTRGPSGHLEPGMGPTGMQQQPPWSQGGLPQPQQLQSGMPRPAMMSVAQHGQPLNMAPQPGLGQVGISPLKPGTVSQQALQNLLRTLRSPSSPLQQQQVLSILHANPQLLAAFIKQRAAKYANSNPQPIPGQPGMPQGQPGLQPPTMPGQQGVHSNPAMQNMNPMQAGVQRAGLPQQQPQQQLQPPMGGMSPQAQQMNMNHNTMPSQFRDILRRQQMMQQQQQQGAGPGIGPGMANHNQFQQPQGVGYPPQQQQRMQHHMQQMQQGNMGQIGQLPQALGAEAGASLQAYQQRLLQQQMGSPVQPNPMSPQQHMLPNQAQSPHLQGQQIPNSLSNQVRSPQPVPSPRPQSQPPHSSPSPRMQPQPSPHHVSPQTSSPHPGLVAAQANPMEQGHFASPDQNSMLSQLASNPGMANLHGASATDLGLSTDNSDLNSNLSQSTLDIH

pIC50	Compound
7.78	Cc1cnn(-c2ccc(NC(=O)C(NCC(C)c3ccc(C#N)cc3)c3ccccc3)nc2)c1 (single isomer, unassigned) [62 Isomer 2]
7.96	N#Cc1ccc(CCNC(C(=O)Nc2ccc(-c3ccccc3)cn2)c2ccccc2)cc1 (single isomer, unassigned) [34 Isomer 2]
8.75	CC1CN(c2ccc(NC(=O)C(NC[C@@H](C)c3ccc(C#N)cc3)c3ccccc3)nc2)CC(=O)N1C (single isomer, unassigned) [124 Isomer 1]
8.38	CC(=O)N1CCN(c2ccc(NC(=O)C(NCCc3ccc(C#N)cc3)c3ccccc3)nc2)CC1 (single isomer, unassigned) [72 Isomer 1]
8.30	Cn1cc(-c2cnc(NC(=O)C(NCCc3ccc(C#N)cc3)c3ccccc3)cc2F)cn1 (single isomer, unassigned) [74 Isomer 2]

These compounds were tested against p300 HAT domain (residues 1287-1666) (Homo sapiens (Human), UniProt Q09472) (assay: p300 HAT SPA assay (scintillation proximity assay, acetylation of biotinylated H3(1-21) peptide)). Conditions: average of at least 2 replicate titrations.
Format: biochemical
Method in brief: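 Scintillation proximity readout of acetylated biotin-H3(1-21) captured on streptavidin plates after 1.5 hr at RT; enzyme was Ni2+/anion-exchange-purified HAT domain in 20 mM Hepes pH 7.5. Inhibitor IC50s calculated from the data.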

p300 HAT domain (residues 1287-1666), sequence (Q09472 1287-1666): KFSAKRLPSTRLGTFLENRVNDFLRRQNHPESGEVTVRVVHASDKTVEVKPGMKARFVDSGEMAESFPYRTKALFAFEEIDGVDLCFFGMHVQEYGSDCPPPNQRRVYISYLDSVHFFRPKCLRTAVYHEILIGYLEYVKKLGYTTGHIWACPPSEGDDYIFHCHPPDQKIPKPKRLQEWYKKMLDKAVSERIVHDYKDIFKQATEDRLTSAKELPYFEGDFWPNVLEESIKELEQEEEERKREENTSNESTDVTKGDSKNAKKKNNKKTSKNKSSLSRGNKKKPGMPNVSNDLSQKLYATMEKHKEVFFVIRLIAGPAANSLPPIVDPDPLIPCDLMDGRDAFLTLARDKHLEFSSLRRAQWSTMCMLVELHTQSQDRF

Compound	pIC50
Cc1cnn(-c2ccc(NC(=O)C(NCC(C)c3ccc(C#N)cc3)c3ccccc3)nc2)c1 (single isomer, unassigned) [62 Isomer 2]	6.25
N#Cc1ccc(CCNC(C(=O)Nc2ccc(-c3ccccc3)cn2)c2ccccc2)cc1 (single isomer, unassigned) [34 Isomer 2]	6.44
CC(=O)N1CCN(c2ccc(NC(=O)C(NCCc3ccc(C#N)cc3)c3ccccc3)nc2)CC1 (single isomer, unassigned) [72 Isomer 1]	7.07
Cn1cc(-c2cnc(NC(=O)C(NCCc3ccc(C#N)cc3)c3ccccc3)cc2F)cn1 (single isomer, unassigned) [74 Isomer 2]	6.84
Cn1cc(-c2ccc(NC(=O)C(NCC3(c4ccc(Cl)cc4)CC3)c3ccccc3)nc2)cn1 (single isomer, unassigned) [97 Isomer 2]	< 5.70
CO[C@H]1CCN(c2ccc(NC(=O)C(NCC(C)c3ccc(C#N)cc3)c3ccccc3)nc2)C1 (single isomer, unassigned) [93 Isomer 3]	7.44
CC(CNC(C(=O)Nc1ccc(-c2cnn(C(C)(C)C#N)c2)cn1)c1ccccc1)c1ccc(C#N)cc1 (single isomer, unassigned) [47 Isomer 2]	7.62
COC1CCN(c2ccc(NC(=O)C(NCCc3ccc(C#N)cc3)c3ccccc3)nc2)CC1 (single isomer, unassigned) [66 Isomer 2]	< 5.30
CCN(CC)C(=O)C1CCN(c2ccc(NC(=O)C(NCCc3ccc(C#N)cc3)c3ccccc3)nc2)CC1 (single isomer, unassigned) [64 Isomer 2]	6.25
CC(CNC(C(=O)Nc1ccc(-c2cnn(C)n2)cn1)c1ccccc1)c1ccc(C#N)cc1 (single isomer, unassigned) [98 Isomer 3]	< 5.70
CN1CCN(c2ccc(NC(=O)C(NCCc3ccc(C#N)cc3)c3ccccc3)nc2)CCC1=O (single isomer, unassigned) [71 Isomer 1]	7.06
CC(CNC(C(=O)Nc1ccc(-c2cnn(C)c2)cc1)c1ccccc1)c1ccc(C#N)cc1 (single isomer, unassigned) [82 Isomer 2]	< 5.30
Cc1cn(-c2ccc(NC(=O)C(NCCc3ccc(C#N)cc3)c3ccccc3)nc2)nn1 (single isomer, unassigned) [78 Isomer 2]	< 5.70
Cn1cc(-c2ccc(NC(=O)C(NCCc3ccc(C#N)c(F)c3)c3ccccc3)nc2)cn1 (single isomer, unassigned) [85 Isomer 2]	6.33
Cc1ccc(-c2ccc(NC(=O)C(NCC(C)c3ccc(C#N)cc3)c3ccccc3)nc2)nn1 (single isomer, unassigned) [15 Isomer 3]	< 5.70
N#Cc1ccc(CCNC(C(=O)Nc2ccc(C3CCC3)cn2)c2ccccc2)cc1 (single isomer, unassigned) [46 Isomer 1]	< 5.30
Cn1cc(-c2ccc(NC(=O)C(NCCc3ccc(C#N)cc3F)c3ccccc3)nc2)cn1 (single isomer, unassigned) [29 Isomer 1]	7.64

Compound	pIC50
Cn1cc(-c2ccc(NC(=O)C(NCCc3ccc(C#N)cc3)c3ccc(Cl)cc3)nc2)cn1 (single isomer, unassigned) [67 Isomer 1]	< 5.70
Cn1cc(-c2ccc(NC(=O)C(NCCc3ccc(C#N)cc3C(F)(F)F)c3ccccc3)nc2)cn1 (single isomer, unassigned) [95 Isomer 2]	6.00
Cc1cnc(-c2ccc(NC(=O)[C@@H](NCCc3ccc(Cl)cc3)c3ccccc3)cc2)[nH]1 (single isomer, unassigned) [9 Isomer 2]	6.88
N#Cc1ccc(CCNC(C(=O)Nc2ccc(N3CCOCC3)cn2)c2ccccc2)cc1 (single isomer, unassigned) [81 Isomer 2]	< 5.70
N#Cc1ccc(CCNC(C(=O)Nc2ccc(N3CCC(F)(F)C3)cn2)c2ccccc2)cc1 (single isomer, unassigned) [77 Isomer 1]	7.40
N#Cc1ccc(CCNC(C(=O)Nc2ccc(C3CC3)cn2)c2ccccc2)cc1 (single isomer, unassigned) [42 Isomer 2]	5.52
COc1ccccc1C(NCCc1ccc(C#N)cc1)C(=O)Nc1ccc(-c2cnn(C)c2)cn1 (single isomer, unassigned) [87 Isomer 1]	6.58
COc1ccc(C(NCCc2ccc(C#N)cc2)C(=O)Nc2ccc(-c3cnn(C)c3)cn2)cc1 (single isomer, unassigned) [63 Isomer 2]	< 5.70
Cn1cc(-c2cnc(NC(=O)C(NCCc3ccc(C#N)cc3)c3ccccc3)c(Cl)c2)cn1 (single isomer, unassigned) [43 Isomer 2]	< 5.30
CC(CNC(C(=O)Nc1ccc(-c2cnn(C(C)(C)C)c2)cn1)c1ccccc1)c1ccc(C#N)cc1 (single isomer, unassigned) [54 Isomer 3]	< 5.70
Cc1cn(-c2ccc(NC(=O)C(NCCc3ccc(C#N)cc3)c3ccccc3)nc2)nn1 (single isomer, unassigned) [78 Isomer 1]	6.53
(S,R)-, (R,S)-, (S,S)-, (R,R)-(2-((2-(4-cyanophenyl)propyl)amino)-N-(5-(1-(difluoromethyl)-1H-pyrazol-4-yl)pyridin-2-yl)-2-phenylacetamide [20 Isomer 1]	6.03
CN1CCN(c2ccc(NC(=O)C(NCCc3ccc(C#N)cc3)c3ccccc3)nc2)CCC1=O (single isomer, unassigned) [71 Isomer 2]	< 5.70
CC(CNC(C(=O)Nc1ccc(-c2cnn(C)c2)cc1)c1ccccc1)c1ccc(Cl)cc1 (single isomer, unassigned) [2 Isomer 1]	< 5.30
Cc1ncc(-c2ccc(NC(=O)[C@@H](NC[C@H](C)c3ccc(C#N)cc3)c3ccccc3)nc2)cn1 (single isomer, unassigned; isomer 2) [6 Isomer 2]	< 5.70
Cc1nc(NC(=O)C(NCC(C)c2ccc(C#N)cc2)c2ccccc2)ccc1-c1cnn(C)c1 (single isomer, unassigned) [39 Isomer 4]	6.52
CC(CNC(C(=O)Nc1ccc(-n2cnc(C(C)(C)C)c2)cn1)c1ccccc1)c1ccc(C#N)cc1 (single isomer, unassigned) [59 Isomer 1]	5.82

Further lines, results first:

pIC50	Compound
7.96	CC1CN(c2ccc(NC(=O)C(NC[C@@H](C)c3ccc(C#N)cc3)c3ccccc3)nc2)CC(=O)N1C (single isomer, unassigned) [124 Isomer 1]
6.77	Cc1ccc(C(C)CNC(C(=O)Nc2ccc(-c3cnn(C)c3)cn2)c2ccccc2)cn1 (single isomer, unassigned) [143 Isomer 4]
7.21	C[C@H](CNC(C(=O)Nc1ccc(C2CC(=O)N(C)C2)cn1)c1ccccc1)c1ccc(C#N)cc1 (single isomer, unassigned) [109 Isomer 3]
< 5.70	CC(CNC(C(=O)Nc1ccc(N2CCN(C)C(=O)C2)cn1)c1cnn(C)c1)c1ccc(C#N)cc1 (single isomer, unassigned) [136 Isomer 2]
6.24	CC(CNC(C(=O)Nc1ccc(-c2cnn(C(F)F)c2)cn1)c1cnn(C)c1)c1ccc(C#N)cc1 (single isomer, unassigned) [128 Isomer 1]
8.21	C[C@H](CNC(C(=O)Nc1ccc(-c2cnn(CC(N)=O)c2)cn1)c1ccccc1)c1ccc(C#N)cc1 (single isomer, unassigned) [147 Isomer 2]
6.06	CC(CNC(C(=O)Nc1ccc(-c2cnn(C)n2)cn1)c1ccccc1)c1ccc(C(F)(F)F)cc1 (single isomer, unassigned) [99 Isomer 1]
5.97	Cn1cc(-c2ccc(NC(=O)C(NCCn3cc(C#N)cn3)c3ccccc3)nc2)cn1 (single isomer, unassigned) [144 Isomer 2]
5.74	(R, S)- and (S, S)-2-((2- (4- cyanophenyl)propyl)ami- no)-N-(5-(1,3-dimethyl- 1H-pyrazol-4-yl)pyridin- 2-yl)-2-phenylacetamide [113 Isomer 1]
> 5.70	Cc1nn(C)c(C)c1-c1ccc(NC(=O)C(NC[C@@H](C)c2ccc(C#N)cc2)c2ccccc2)nc1 (single isomer, unassigned) [130 Isomer 1]
< 5.70	CC(CNC(C(=O)Nc1ccc(-c2cnn(C)c2)cn1)c1cnn(C)c1)c1ccc(C#N)cc1 (single isomer, unassigned) [127 Isomer 2]
< 5.70	Cc1cc(NC(=O)C(NC[C@@H](C)c2ccc(C#N)cc2)c2ccccc2)ncc1-c1cnn(C)c1 (single isomer, unassigned) [115 Isomer 1]
< 5.70	CC(CNC(C(=O)Nc1ccc(N2CCN(CC(F)(F)F)C(=O)C2)cn1)c1ccccc1)c1ccc(C#N)cc1 (single isomer, unassigned) [103 Isomer 4]
6.82	Cn1cc(-c2ccc(NC(=O)C(NCCc3ccc(C(F)(F)F)nc3)c3ccccc3)nc2)cn1 (single isomer, unassigned) [140 Isomer 1]
5.99	CC(CNC(C(=O)Nc1ccc(-c2cn[nH]c2)cn1)c1ccccc1)c1ccc(C#N)cc1 (single isomer, unassigned) [104 Isomer 4]
6.44	Cc1noc(C)c1-c1ccc(NC(=O)C(NC[C@@H](C)c2ccc(C#N)cc2)c2ccccc2)nc1 (single isomer, unassigned) [131 Isomer 1]
< 5.70	Cn1cc(-c2ccc(NC(=O)C(NCC(c3ccc(C#N)cc3)C(F)(F)F)c3ccccc3)nc2)cn1 (single isomer, unassigned) [149 Isomer 1]
